Reference: patent US4390629A, “Polypeptide degrading enzymes” (President and Fellows of Harvard College, priority 1981, dated 1983)
Like-named read-outs stand apart in the source and are kept apart here.

Legend:
La [1] = target: T1, La (Escherichia coli, UniProt P0A9M0)
La [2] = target: T1, La; test: biochemical; details: read-out: stimulation of globin-degrading activity in peak IV
Protease Ci = test: Inhibition and stimulation of protease Ci insulin-degrading activity; type: biochemical, E. coli
Mi = type: biochemical, E. coli
Fa = type: biochemical, E. coli
Protease Re = target: T2, Protease Re (Escherichia coli, UniProt P23865); test: Sensitivity of protease Re proteolytic activity (casein) to inhibitors; type: biochemical, E. coli
T2 sequence (P23865 23-682): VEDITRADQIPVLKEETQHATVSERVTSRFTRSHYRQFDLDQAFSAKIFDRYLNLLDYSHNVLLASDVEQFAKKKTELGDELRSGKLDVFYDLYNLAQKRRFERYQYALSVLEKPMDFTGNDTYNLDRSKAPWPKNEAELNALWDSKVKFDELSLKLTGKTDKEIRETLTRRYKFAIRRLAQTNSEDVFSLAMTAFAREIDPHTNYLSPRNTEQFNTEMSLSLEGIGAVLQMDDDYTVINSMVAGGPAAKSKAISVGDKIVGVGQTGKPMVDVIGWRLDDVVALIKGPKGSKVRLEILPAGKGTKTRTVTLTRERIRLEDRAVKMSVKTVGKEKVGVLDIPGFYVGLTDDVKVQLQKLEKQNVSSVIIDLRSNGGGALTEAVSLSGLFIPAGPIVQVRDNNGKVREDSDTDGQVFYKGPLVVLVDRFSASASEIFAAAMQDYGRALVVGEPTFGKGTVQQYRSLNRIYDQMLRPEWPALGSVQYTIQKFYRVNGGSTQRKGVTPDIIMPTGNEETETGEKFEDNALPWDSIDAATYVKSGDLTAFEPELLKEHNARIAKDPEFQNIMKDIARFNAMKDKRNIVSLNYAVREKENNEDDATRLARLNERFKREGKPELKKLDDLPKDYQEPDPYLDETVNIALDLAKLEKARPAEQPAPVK

Protease So = type: biochemical, E. coli
[^14 C] globin = Degradation of [14C] globin to acid-soluble products; type: biochemical, beef
[^3 H] casein = Degradation of [3H] casein to acid-soluble products; type: biochemical, bovine

With Nc1ncnc2c1ncn2[C@@H]1O[C@H](COP(=O)(O)OP(=O)(O)OP(=O)(O)O)[C@@H](O)[C@H]1O [ATP] the “increase of degradation of globin and casein by La” value (La [1]; 3000 µM) was 2.5-20 fold and the fold induction at 3000 µM (La [2]) was 4 to 20.

Nc1ccn([C@@H]2O[C@H](COP(=O)(O)OP(=O)(O)OP(=O)(O)O)[C@@H](O)[C@H]2O)c(=O)n1 [CTP] was tested, and the “stimulation of La proteolysis by nucleotides (in words)” value (from here on “stimulation of La proteolysis”) (La [1]) was “stimulate but less effectively”.

In the case of [Co+2] [Co^++], the “stimulation of protease Ci activity by divalent cations” value (from here on “stimulation of protease Ci activity”) (Protease Ci) is reported as “markedly stimulated”.

With O=C(O)CN(CCN(CC(=O)O)CC(=O)O)CC(=O)O [EDTA] the “inhibition of Mi” value (Mi) was “about 35%”, the “inhibition of Fa” value (Fa) was 60% and the “sensitivity of protease Re to inhibitor” value (Protease Re) was “sensitive”.

In the case of O=C(O)CN(CCOCCOCCN(CC(=O)O)CC(=O)O)CC(=O)O [EGTA], the “inhibition of protease Ci activity” value (Protease Ci) is reported as “not”.

[Mn+2] [Mn^++] was tested, and the “stimulation of protease Ci activity” value (Protease Ci) was “markedly stimulated”.

In the case of CCN1C(=O)C=CC1=O [N-ethyl maleimide], the “sensitivity of La to inhibitor” value (La [1]) is reported as “inhibited”.

O=c1ccn([C@@H]2O[C@H](COP(=O)(O)OP(=O)(O)OP(=O)(O)O)[C@@H](O)[C@H]2O)c(=O)[nH]1 [UTP] was tested, and the “stimulation of La proteolysis” value (La [1]) was “stimulate but less effectively”.

In the case of [O]=[V]([O-])([O-])[O-] [Vanadate], the “sensitivity of La to inhibitor” value (La [1]) is reported as “sensitive to inhibition”.

For [Zn+2] [Zn^++], the “stimulation of protease Ci activity” value (Protease Ci) was “not”.

Nc1ncnc2c1ncn2[C@H]1C[C@H](O)[C@@H](COP(=O)(O)OP(=O)(O)OP(=O)(O)O)O1 [deoxyadenosine triphosphate] was tested, and the “stimulation of La proteolysis” value (La [1]) was “stimulate but less effectively”.

With CCCCCCC1OC(=O)CNC(=O)C(C(C)O)NC(=O)C(CO)NC(=O)C(C(C)CC)NC(=O)C(CC(C)C)N(C)C(=O)C1C (centres unmarked) [globomycin] the “inhibition of protease Ci activity by antibiotics” value (Protease Ci; concentrations of 5-20 μg per ml) was “strongly inhibit”.

c1cnc2c(c1)ccc1cccnc12 [o-phenanthroline] was tested, and the “inhibition of Mi” value (Mi) was “about 35%”, the “inhibition of Fa” value (Fa) was “about 35%” and the “sensitivity of protease Re to inhibitor” value (Protease Re; casein as substrate) was “sensitive”. The “inhibition of protease Ci activity” value (Protease Ci) was “inhibited”.

With O=C(O)c1cc[c]([Hg+])cc1.[OH-] [p-hydroxymercuribenzoate] the “inhibition of protease Ci activity” value (Protease Ci) was “sensitive”.

In the case of N=C(N)c1ccc(OCCCCCOc2ccc(C(=N)N)cc2)cc1 [pentamidine], the “inhibition of protease So” value (Protease So) is reported as “about 80%”.

With O=S(=O)(F)Cc1ccccc1 [phenylmethyl sulfonyl fluoride] the “sensitivity of protease So to inhibitor” value (Protease So) was “sensitive”, the “sensitivity of La to inhibitor” value (La [1]) was “sensitive” and the “sensitivity of protease Re to inhibitor” value (Protease Re) was “sensitive”.

bacitracin was tested, and the “inhibition of protease Ci activity by antibiotics” value (Protease Ci) was “strongly inhibit”.

B1: La: ATP-dependent cytoplasmic E. coli serine protease of peak IV, about 115,000 daltons (protein, UniProt P0A9M0 2-784, looked up)
Lon protease: NPERSERIEIPVLPLRDVVVYPHMVIPLFVGREKSIRCLEAAMDHDKKIMLVAQKEASTDEPGVNDLFTVGTVASILQMLKLPDGTVKVLVEGLQRARISALSDNGEHFSAKAEYLESPTIDEREQEVLVRTAISQFEGYIKLNKKIPPEVLTSLNSIDDPARLADTIAAHMPLKLADKQSVLEMSDVNERLEYLMAMMESEIDLLQVEKRIRNRVKKQMEKSQREYYLNEQMKAIQKELGEMDDAPDENEALKRKIDAAKMPKEAKEKAEAELQKLKMMSPMSAEATVVRGYIDWMVQVPWNARSKVKKDLRQAQEILDTDHYGLERVKDRILEYLAVQSRVNKIKGPILCLVGPPGVGKTSLGQSIAKATGRKYVRMALGGVRDEAEIRGHRRTYIGSMPGKLIQKMAKVGVKNPLFLLDEIDKMSSDMRGDPASALLEVLDPEQNVAFSDHYLEVDYDLSDVMFVATSNSMNIPAPLLDRMEVIRLSGYTEDEKLNIAKRHLLPKQIERNALKKGELTVDDSAIIGIIRYYTREAGVRGLEREISKLCRKAVKQLLLDKSLKHIEINGDNLHDYLGVQRFDYGRADNENRVGQVTGLAWTEVGGDLLTIETACVPGKGKLTYTGSLGEVMQESIQAALTVVRARAEKLGINPDFYEKRDIHVHVPEGATPKDGPSAGIAMCTALVSCLTGNPVRADVAMTGEITLRGQVLPIGGLKEKLLAAHRGGIKTVLIPFENKRDLEEIPDNVIADLDIHPVKRIEEVLTLALQNEPSGMQVVTAK
For B1, the degradation of globin ([^14 C] globin) was “capable of degrading” and the degradation of casein ([^3 H] casein) was “capable of degrading”.

B2: Do: E. coli serine protease of about 520,000 daltons, degrades globin and casein (protein, UniProt P0C0V0 27-474, looked up)
Periplasmic serine …: AETSSATTAQQMPSLAPMLEKVMPSVVSINVEGSTTVNTPRMPRNFQQFFGDDSPFCQEGSPFQSSPFCQGGQGGNGGGQQQKFMALGSGVIIDADKGYVVTNNHVVDNATVIKVQLSDGRKFDAKMVGKDPRSDIALIQIQNPKNLTAIKMADSDALRVGDYTVAIGNPFGLGETVTSGIVSALGRSGLNAENYENFIQTDAAINRGNSGGALVNLNGELIGINTAILAPDGGNIGIGFAIPSNMVKNLTSQMVEYGQVKRGELGIMGTELNSELAKAMKVDAQRGAFVSQVLPNSSAAKAGIKAGDVITSLNGKPISSFAALRAQVGTMPVGSKLTLGLLRDGKQVNVNLELQQSSQNQVDSSSIFNGIEGAEMSNKGKDQGVVVNNVKTGTPAAQIGLKKGDVIIGANQQAVKNIAELRKVLDSKPSVLALNIQRGDSTIYLLMQ
B2 was tested, and the degradation of globin ([^14 C] globin) was “hydrolyze” and the degradation of casein ([^3 H] casein) was “hydrolyze”.
